Source: US20250177412A1, “SMALL-MOLECULE INHIBITORS TARGETING THE BOB1/OCT1 INTERFACE” (NANTES UNIVERSITE, priority 2022, published 2025)

Experiments:
[1] = target: T1, POU domain of OCT1 (POU1) (Homo sapiens, UniProt P14859); assay: Kd measurement (fluorescence emission spectra, Hill's coordinates); type: binding; settings: 298.15 K
T1 construct: 6xHis (pET28 N-terminal histidine tag) (N); made in house; host or cells: E. coli BL21
T1 sequence (P14859 280-438): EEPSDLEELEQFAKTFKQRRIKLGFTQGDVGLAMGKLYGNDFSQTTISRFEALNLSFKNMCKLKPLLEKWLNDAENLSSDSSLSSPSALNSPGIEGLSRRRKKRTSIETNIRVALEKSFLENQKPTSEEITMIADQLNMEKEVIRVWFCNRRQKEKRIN

[2] = target: T1, POU domain of OCT1 (POU1); assay: Thermal shift assay (TSA); type: binding; settings: compound 10 μM, POU1 5 μM
Experimental: Following primers were used for the amplification:
POU1 and BOB1 proteins (each at a final concentration 5 μM), compound 005 (final concentration 10 μM), and 1× ProteOrange fluorescent dye (Lumiprobe, Russia) were mixed in triplicates in 100 μL of 0.1 M phosphate buffered saline pH 7.4 per and pipetted into 96-well 0.2-mL thin-wall PCR plates (Roche Life Science, Switzerland) sealed with optical-grade sealing film. Fluorescence data were acquired on a LightCycler® 96 Real Time PCR Instrument (Roche Life Science, Switzerland) with an excitation range of 470-533 nm. The fluorescence emission signal at […] was measured for data analysis. The temperature was held for 30 sec per degree from 37 to 98° C. (ramp rate of […]). The derivatives of the fluorescence signal as function of the temperature were used for further analysis.

[3] = test system: memory B cells; assay: Immunoglobulin isotype production (LEGENDplex 8-plex); type: cell-based, human; settings: day 7
Experimental: B cells were stimulated to differentiate into plasmablasts using a two-phase cell culture protocol as previously described. Briefly, B cells were seeded at 4×10^5 cells/mL in 24-well plates and activated during 4 days with 50 ng/mL recombinant human soluble CD40L (R&D Systems), 2.5 μg/mL CpG oligodeoxynucleotide (ODN) 2006 (Amidogen or Cayla Invivogen), 2 μg/mL F(ab′)2 fragment goat anti-human IgA+IgG+IgM (H+L) polyclonal Abs (anti-BCR) (Jackson ImmunoResearch Laboratories), and 50 U/mL human IL-2 (SARL Pharmaxie or Novartis). […] At days 0, 4 and 7, B cells were stained with viability marker LIVE/DEAD Fixable Aqua Dead Cell Stain (Thermofisher) to identify dead cells, followed by extracellular staining with anti-human mAbs: anti-CD20 FITC, anti-IgD BUV395, anti-CD27 BUV737, anti-CD38 BV605 (all from BD Biosciences) and analyzed by flow cytometry (FACSCelesta™, BD Biosciences). In some experiments, B cell apoptosis was evaluated by intracellular active caspase-3 staining (Caspase-3-PE, BD Biosciences).
Immunoglobulin isotypes were quantified using the Human Immunoglobulin Isotyping LEGENDplex 8-plex kit (BioLegend) according to the manufacturer's instructions. Data were collected on the BD FACSCanto™ II flow cytometer and analyzed using LEGENDplex Data Analysis Software.

With `Cc1ccc(NC(=O)C2CN(c3nc(NCCCc4ccc(F)cc4)nc(NCCC(=O)O)n3)c3ccccc3O2)cc1Cl` (centres unmarked) [compound 005, 3-((4-(2-((3-chloro-4-methylphenyl)carbamoyl)-2,3-dihydro-4H-benzo[b][1,4]oxazin-4-yl)-6-((3-(4-fluorophenyl)propyl)amino)-1,3,5-triazin-2-yl)amino)propanoic acid] as the compound, how does the Kd ([1]; POU1 3 μM) read?
Its Kd is 1 nM.

What about the “ΔG (change of Gibb's energy) of binding” value ([1]; calculated from Kb) of the same compound?
Its value is “negative value”.

And the “increase of POU1 melting temperature” value [2]?
The value was “about 4 °C”.

And the “IgG1, IgG2, IgG3 and IgG4 production” value ([3]; 10 μM)?
Its value is “significant decrease”.

What about the “titers of all immunoglobulin subclasses” value ([3]; 15 and 20 μM) of the same compound?
Its value is “strongly suppressed”.
